Source: patent US7834217B2, “Method for producing oxidation product of cycloalkane” (Daicel Chemical Industries, Ltd., priority 2006, dated 2010)

Assay: Solubility in water at 25° C.
Type: physicochemical

In the case of `O=C1c2ccccc2C(=O)N1O` [N-hydroxyphthalimide], the “solubility in water (25° C.)” value is reported as at most 0.01 g/100 g-H2O.
